From PubChem BioAssay (NCI)
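These data come from cells grown in 96-well plates and exposed to compound for 48 hours at five concentrations. Definition used: TGI = concentration required for complete inhibition of growth.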 Where a SMILES comes first, the peptide text is derived from it. [ ]: non-standard residue; d: D form. The star is where a group is joined. X28 = COC1=CC(=O)N(C(=O)[C@@H](O*)C(C)C)[C@H]1Cc1ccccc1; NMeV = CN[C@H](C(=O)O)C(C)C; Hexanoyl = CCCCCC(=O)*

Legend:
Test in all cases: NCI-60 cell line screen, 48 h
786-0 renal = tested on: 786-0 renal
A498 renal = tested on: A498 renal
A549 NSCLC = tested on: A549 NSCLC
ACHN renal = tested on: ACHN renal
BT-549 breast = tested on: BT-549 breast
CAKI-1 renal = tested on: CAKI-1 renal
CCRF-CEM leukemia = tested on: CCRF-CEM leukemia
COLO 205 colon = tested on: COLO 205 colon
DU-145 prostate = tested on: DU-145 prostate
EKVX NSCLC = tested on: EKVX NSCLC
HCC-2998 colon = tested on: HCC-2998 colon
HCT-116 colon = tested on: HCT-116 colon
HCT-15 colon = tested on: HCT-15 colon
HOP-62 NSCLC = tested on: HOP-62 NSCLC
HOP-92 NSCLC = tested on: HOP-92 NSCLC
HS 578T breast = tested on: HS 578T breast
HT29 colon = tested on: HT29 colon
IGROV1 ovarian = tested on: IGROV1 ovarian
K-562 leukemia = tested on: K-562 leukemia
KM12 colon = tested on: KM12 colon
LOX IMVI melanoma = tested on: LOX IMVI melanoma
M14 melanoma = tested on: M14 melanoma
MALME-3M melanoma = tested on: MALME-3M melanoma
MCF7 breast = tested on: MCF7 breast
MDA-MB-231 breast = tested on: MDA-MB-231 breast
MDA-MB-435 = tested on: MDA-MB-435
MDA-N = tested on: MDA-N
MOLT-4 leukemia = tested on: MOLT-4 leukemia
NCI-H23 lung = tested on: NCI-H23 lung
NCI-H460 lung = tested on: NCI-H460 lung
NCI-H522 lung = tested on: NCI-H522 lung
NCI/ADR-RES ovarian = tested on: NCI/ADR-RES ovarian
OVCAR-3 ovarian = tested on: OVCAR-3 ovarian
OVCAR-4 ovarian = tested on: OVCAR-4 ovarian
OVCAR-5 ovarian = tested on: OVCAR-5 ovarian
OVCAR-8 ovarian = tested on: OVCAR-8 ovarian
PC-3 prostate = tested on: PC-3 prostate
RPMI-8226 leukemia = tested on: RPMI-8226 leukemia
SF-268 CNS = tested on: SF-268 CNS
SF-295 CNS = tested on: SF-295 CNS
SF-539 CNS = tested on: SF-539 CNS
SK-MEL-28 melanoma = tested on: SK-MEL-28 melanoma
SK-MEL-5 melanoma = tested on: SK-MEL-5 melanoma
SK-OV-3 ovarian = tested on: SK-OV-3 ovarian
SN12C renal = tested on: SN12C renal
SNB-19 CNS = tested on: SNB-19 CNS
SNB-75 CNS = tested on: SNB-75 CNS
SR leukemia = tested on: SR leukemia
SW-620 colon = tested on: SW-620 colon
T-47D breast = tested on: T-47D breast
TK-10 renal = tested on: TK-10 renal
U251 CNS = tested on: U251 CNS
UACC-257 melanoma = tested on: UACC-257 melanoma
UACC-62 melanoma = tested on: UACC-62 melanoma
UO-31 renal = tested on: UO-31 renal
HL-60(TB) leukemia = tested on: HL-60(TB) leukemia
NCI-H226 lung = tested on: NCI-H226 lung
RXF 393 renal = tested on: RXF 393 renal
SK-MEL-2 melanoma = tested on: SK-MEL-2 melanoma

Measured: TGI

O=C(Cc1ccccc1)NNc1nc(NNC(=O)c2ccncc2)nc(Nc2ccc([N+](=O)[O-])cc2)n1
not listed: HL-60(TB) leukemia | NCI-H226 lung | RXF 393 renal | SK-MEL-2 melanoma
> 10 µM: all other assays above

CCCCCC(=O)N[C@H](C(=O)N[C@H](C(=O)N(C)[C@H](C(=O)N1CCC[C@H]1C(=O)N1CCC[C@H]1C(=O)O[C@H](C(=O)N1C(=O)C=C(OC)[C@@H]1Cc1ccccc1)C(C)C)C(C)C)C(C)C)C(C)C (Hexanoyl-VV[NMeV]PP-X28)
38.5 µM: SNB-75 CNS
62.7 µM: RXF 393 renal
85.5 µM: PC-3 prostate
not listed: A549 NSCLC | M14 melanoma | SK-MEL-5 melanoma | SNB-19 CNS | SR leukemia
> 100 µM: all other assays above
